T/C data for 19 compounds are collected here from PubChem BioAssay AID328 (DTP/NCI, 2004).

Several values for one entry are separate records, joined by “and”; a condition that tells them apart may be missing. Equal values may be shown once. Inconclusive results and toxic doses are left out.

For the test, the system named is BDF1 mice, P388 leukemia ip, median survival T/C. Put plainly: NCI In Vivo Anticancer Drug Screen. Data for tumor model P388 Leukemia (intraperitoneal) in B6D2F1 (BDF1) mice. To be noted: endpoint: median survival time, higher = longer survival. How it is done:
The antitumor activity of compounds was measured in mice bearing transplantable tumors. Survival or tumor size were measured and the results are expressed as the measurement made in the treated group (T) divided by the measurement made in the vehicle treated control group (C). The tumor model used in this assay is P388 Leukemia (intraperitoneal) in B6D2F1 (BDF1) mice

Where [1] appears, read: dose: 100.0 mg/kg/injection, schedule: Q04DX003 (ip), vehicle: saline.
The mark [2] stands for this setting: dose: 200.0 mg/kg/injection, schedule: Q04DX003 (ip), vehicle: saline.
The mark [3] stands for this setting: dose: 400.0 mg/kg/injection, schedule: Q04DX003 (ip), vehicle: saline.
The mark [4] stands for this setting: dose: 100.0 mg/kg/injection, schedule: Q04DX003 (ip), vehicle: saline with Tween-80.
The mark [5] stands for this setting: dose: 200.0 mg/kg/injection, schedule: Q04DX003 (ip), vehicle: saline with Tween-80.
The mark [6] stands for this setting: dose: 400.0 mg/kg/injection, schedule: Q04DX003 (ip), vehicle: saline with Tween-80.
Where [7] appears, read: dose: 25.0 mg/kg/injection, schedule: Q01DX009 (ip), vehicle: saline.
The mark [8] stands for this setting: dose: 50.0 mg/kg/injection, schedule: Q01DX009 (ip), vehicle: saline with Tween-80.
Setting [9] is: dose: 50.0 mg/kg/injection, schedule: Q01DX009 (ip), vehicle: saline.
Where [10] appears, read: dose: 100.0 mg/kg/injection, schedule: Q01DX009 (ip), vehicle: saline with Tween-80.
Where [11] appears, read: dose: 100.0 mg/kg/injection, schedule: Q01DX009 (ip), vehicle: saline.
[12] abbreviates: dose: 200.0 mg/kg/injection, schedule: Q01DX009 (ip), vehicle: saline with Tween-80.
[13] abbreviates: dose: 200.0 mg/kg/injection, schedule: Q01DX009 (ip), vehicle: saline.
[14] abbreviates: dose: 100.0 mg/kg/injection, schedule: Q01DX009 (ip), vehicle: Klucel (hydroxypropylcellulose) (HPC).
Where [15] appears, read: dose: 200.0 mg/kg/injection, schedule: Q01DX009 (ip), vehicle: Klucel (hydroxypropylcellulose) (HPC).

With `Cc1ccc(NC(=O)CC#N)c(C)c1`, the T/C under setting [1] is 109 % of control, the T/C under setting [2] was 100 % of control and the T/C under setting [3] was 92 % of control.
Consider `CC(=O)OCCN1c2ccccc2Sc2cnccc21`, for which the T/C is 104 % of control under setting [4], 90 % of control under setting [5] and 95 % of control under setting [6].
On the same counts, the results for `CCCCCCCCCC(=O)CCCC` are 100 % of control, 91 % of control and 108 % of control.
Consider `OC(CN1CCCCC1)c1cc(-c2ccccc2)no1` (stereo unspecified), for which the T/C by setting is: under setting [7], 100 % of control; under setting [8], 100 % of control; under setting [9], 105 % of control; under setting [10], 100 % of control; under setting [11], 107 % of control; under setting [12], 105 % of control. The T/C under setting [13] is 88 % of control.
Regarding `Cc1ccc(NS(=O)(=O)c2ccc([N+](=O)[O-])cc2)cc1`, the T/C reads like this: (dose: 12.5 mg/kg/injection, schedule: Q01DX009 (ip), vehicle: saline with Tween-80) 90 % of control; (dose: 33.0 mg/kg/injection, schedule: Q01DX009 (ip), vehicle: saline with Tween-80) 100 % of control; under setting [8], 90 % of control and 100 % of control; (dose: 75.0 mg/kg/injection, schedule: Q01DX009 (ip), vehicle: saline with Tween-80) 95 % of control; under setting [10], 100 % of control.
With `O=CNNc1ccc([N+](=O)[O-])cc1`, the T/C is 90 % of control under setting [14]; 105 % of control (dose: 100.0 mg/kg/injection, schedule: Q04DX003 (ip), vehicle: Klucel (hydroxypropylcellulose) (HPC)); 100 % of control under setting [15]; 100 % of control (dose: 200.0 mg/kg/injection, schedule: Q04DX003 (ip), vehicle: Klucel (hydroxypropylcellulose) (HPC)); 104 % of control (dose: 400.0 mg/kg/injection, schedule: Q01DX009 (ip), vehicle: Klucel (hydroxypropylcellulose) (HPC)); 105 % of control (dose: 400.0 mg/kg/injection, schedule: Q04DX003 (ip), vehicle: Klucel (hydroxypropylcellulose) (HPC)).
`CC(C)(Br)C(=O)c1ccco1`: the T/C by setting is: (dose: 25.0 mg/kg/injection, schedule: Q01DX009 (ip), vehicle: saline with Tween-80) 109 % of control; under setting [8], 113 % of control; under setting [10], 113 % of control.
In the case of `OC(COc1ccccc1)CC(O)(C(F)(F)F)C(F)(F)F` (stereo unspecified), the T/C is 95 % of control (dose: 100.0 mg/kg/injection, schedule: Q01DX001 (ip), vehicle: saline with Tween-80); 104 % of control (dose: 200.0 mg/kg/injection, schedule: Q01DX001 (ip), vehicle: saline with Tween-80); 104 % of control (dose: 400.0 mg/kg/injection, schedule: Q01DX001 (ip), vehicle: saline with Tween-80).
`CCCCN(CCCC)CC(O)c1cc(Cl)cc2c1-c1ccc(Cl)cc1C2` (stereo unspecified): the T/C was 105 % of control under setting [8], 114 % of control under setting [10] and 98 % of control under setting [12].
Turning to `CC(C)CCOC(=O)C(Br)c1ccccc1` (stereo unspecified), the T/C was 110 % of control (dose: 44.0 mg/kg/injection, schedule: Q01DX009 (ip), vehicle: saline with Tween-80); 107 % of control (dose: 66.0 mg/kg/injection, schedule: Q01DX009 (ip), vehicle: saline with Tween-80); 108 % of control under setting [4]; 115 % of control (dose: 150.0 mg/kg/injection, schedule: Q01DX009 (ip), vehicle: saline with Tween-80); 116 % of control under setting [5]; 104 % of control under setting [6].
Regarding `Nc1ccc2cc(Cl)ccc2c1`, under setting [10], the T/C is 90 % of control.
On to `CC(=O)OC12C3CCCC1CCCC2CCC3` (stereo unspecified), for which the T/C is, setting by setting: (dose: 100.0 mg/kg/injection, schedule: Q01DX001 (ip), vehicle: Klucel (hydroxypropylcellulose) (HPC)) 100 % of control; (dose: 200.0 mg/kg/injection, schedule: Q01DX001 (ip), vehicle: Klucel (hydroxypropylcellulose) (HPC)) 100 % of control; (dose: 400.0 mg/kg/injection, schedule: Q01DX001 (ip), vehicle: Klucel (hydroxypropylcellulose) (HPC)) 100 % of control.
Turning to `CC1(C)N=C(N)Nc2nnc(-c3cccc(Cl)c3)n21`, the T/C runs as follows: (dose: 100.0 mg/kg/injection, schedule: Q01DX001 (ip), vehicle: saline sonified) 105 % of control; (dose: 200.0 mg/kg/injection, schedule: Q01DX001 (ip), vehicle: saline sonified) 100 % of control; (dose: 400.0 mg/kg/injection, schedule: Q01DX001 (ip), vehicle: saline sonified) 100 % of control.
Regarding `COc1ccc(-c2cc(=O)c3c(O)c(OC)c(O)cc3o2)cc1`, the T/C (dose: 10.0 mg/kg/injection, schedule: Q01DX010 (ip), vehicle: carboxymethylcellulose (CMC)) is 95 % of control; the T/C (dose: 20.0 mg/kg/injection, schedule: Q01DX010 (ip), vehicle: carboxymethylcellulose (CMC)) is 90 % of control; the T/C (dose: 80.0 mg/kg/injection, schedule: Q01DX010 (ip), vehicle: carboxymethylcellulose (CMC)) was 95 % of control.
As for `C=C(NC(=O)C(=C)NC(=O)c1csc(C2=NC3c4csc(n4)C4NC(=O)c5csc(n5)C(C(C)(O)C(C)O)NC(=O)C5CSC(=N5)/C(=C/C)NC(=O)C(C(C)O)NC(=O)c5csc(n5)C3(CC2)NC(=O)C(C)NC(=O)C(=C)NC(=O)C(C)NC(=O)C(C(C)CC)NC2C=Cc3c(C(C)O)cc(nc3C2O)C(=O)OC4C)n1)C(N)=O` (stereo unspecified), the T/C is 112 % of control (dose: 18.75 mg/kg/injection, schedule: Q01DX009 (ip), vehicle: Klucel (hydroxypropylcellulose) (HPC)); 114 % of control (dose: 37.5 mg/kg/injection, schedule: Q01DX009 (ip), vehicle: Klucel (hydroxypropylcellulose) (HPC)); 158 % of control (dose: 50.0 mg/kg/injection, schedule: Q01DX009 (ip), vehicle: Klucel (hydroxypropylcellulose) (HPC)); 114 % of control (dose: 75.0 mg/kg/injection, schedule: Q01DX009 (ip), vehicle: Klucel (hydroxypropylcellulose) (HPC)); 155 % of control and 163 % of control under setting [14]; 156 % of control and 165 % of control and 182 % of control under setting [15]. Moreover, the T/C (dose: 300.0 mg/kg/injection, schedule: Q01DX009 (ip), vehicle: Klucel (hydroxypropylcellulose) (HPC)) was 114 % of control.
Take `CN=C(N)Nc1ccc(C(=O)O)cc1`: the T/C (dose: 50.0 mg/kg/injection, schedule: Q01DX009 (ip), vehicle: water) was 93 % of control; the T/C (dose: 100.0 mg/kg/injection, schedule: Q01DX009 (ip), vehicle: water) is 99 % of control; the T/C (dose: 100.0 mg/kg/injection, schedule: Q04DX003 (ip), vehicle: water) is 100 % of control; the T/C (dose: 200.0 mg/kg/injection, schedule: Q01DX009 (ip), vehicle: water) is 90 % of control; the T/C (dose: 200.0 mg/kg/injection, schedule: Q04DX003 (ip), vehicle: water) was 94 % of control; the T/C (dose: 400.0 mg/kg/injection, schedule: Q01DX009 (ip), vehicle: water) was 92 % of control. Moreover, the T/C (dose: 400.0 mg/kg/injection, schedule: Q04DX003 (ip), vehicle: water) was 88 % of control.
For the compound `O=C1c2cccc(O)c2C(=O)c2c(OC3OC(CO)C(OC4OC(CO)C(O)C(O)C4O)C(O)C3O)cccc21` (stereo unspecified), the T/C under setting [1] is 103 % of control, the T/C under setting [2] was 119 % of control and the T/C under setting [3] is 112 % of control.
With `C1CCC2[N-]CC3CCCCC3[N-]CC3CCCCC3[N-]CC3CCCCC3[N-]CC2C1.[Ni+2].[O-][Cl+3]([O-])([O-])O` (stereo unspecified), the T/C (dose: 0.75 mg/kg/injection, schedule: Q01DX009 (ip), vehicle: saline) was 102 % of control; the T/C (dose: 1.5 mg/kg/injection, schedule: Q01DX009 (ip), vehicle: saline) is 110 % of control; the T/C (dose: 3.0 mg/kg/injection, schedule: Q01DX009 (ip), vehicle: saline) is 102 % of control; the T/C (dose: 6.0 mg/kg/injection, schedule: Q01DX009 (ip), vehicle: saline) is 105 % of control.
Take `CC(=O)Nc1ccc(C(=O)O)c([N+](=O)[O-])c1`: the T/C is 86 % of control under setting [7]; 92 % of control and 106 % of control under setting [9]; 91 % of control and 100 % of control under setting [11]; 98 % of control under setting [1]; 106 % of control under setting [13]; 108 % of control under setting [2]. The T/C is, setting by setting: (dose: 400.0 mg/kg/injection, schedule: Q01DX009 (ip), vehicle: saline) 101 % of control; under setting [3], 96 % of control.
